Like-named read-outs stand apart in the source and are kept apart here.
What was measured:
ROCKII (1-543) [1] = molecular target: T1, ROCKII (1-543) (Homo sapiens (Human), UniProt O75116); test: Luciferin-Luciferase Assay (Assay 1); assay type: biochemical; conditions: luciferin-luciferase residual ATP; 750 nM ATP, 7.5 nM kinase
Description: 1. Luciferin-Luciferase Assay
The activity of ROCKII (1-543) kinase is measured utilizing Cambrex PKLight ATP Detection Reagent, a homogeneous assay technology using luciferin-luciferase to quantify residual ATP. The assay is performed in 384-well low-volume, white, non-binding surface microtiter plates (Corning). The assay buffer is 25 mM HEPES, pH 7.5, 10 mM MgCl2, 50 mM KCl, 0.2% BSA, 0.01% CHAPS, 100 μM Na3VO4 and 0.5 mM DTT. Test compounds, dissolved in neat DMSO at 500 μg/mL, are serially diluted for dose response for a final starting concentration of 3 μg/mL in 1% DMSO of assay buffer. ROCKII (1-543) (62,408 Da) is diluted in assay buffer to a final concentration of 7.5 nM in a total volume of 15 μL. Positive controls are reaction mixtures containing no test compound; negative controls (blanks) are reaction mixtures containing no kinase. After 15 minutes of pre-incubation of the test compounds with the kinase, a mixture of ATP and peptide substrate ([…]) in assay buffer is added to each well for a final concentration of 750 nM ATP and 500 nM peptide, respectively. After 90 minutes of incubation of the kinase reaction at 28° C. temperature, 10 μL of PKLight ATP Detection Reagent (warmed to room temperature previously) is added to each well. The assay plate is incubated at room temperature for additional 15 minutes and then read on an Analyst in luminescence mode. Dose-response experiments for each of the test compounds are conducted in quadruplet. IC50 values of test compounds represent 50% response of the positive control from the dose-response curve.
Target sequence in this assay (O75116 1-543): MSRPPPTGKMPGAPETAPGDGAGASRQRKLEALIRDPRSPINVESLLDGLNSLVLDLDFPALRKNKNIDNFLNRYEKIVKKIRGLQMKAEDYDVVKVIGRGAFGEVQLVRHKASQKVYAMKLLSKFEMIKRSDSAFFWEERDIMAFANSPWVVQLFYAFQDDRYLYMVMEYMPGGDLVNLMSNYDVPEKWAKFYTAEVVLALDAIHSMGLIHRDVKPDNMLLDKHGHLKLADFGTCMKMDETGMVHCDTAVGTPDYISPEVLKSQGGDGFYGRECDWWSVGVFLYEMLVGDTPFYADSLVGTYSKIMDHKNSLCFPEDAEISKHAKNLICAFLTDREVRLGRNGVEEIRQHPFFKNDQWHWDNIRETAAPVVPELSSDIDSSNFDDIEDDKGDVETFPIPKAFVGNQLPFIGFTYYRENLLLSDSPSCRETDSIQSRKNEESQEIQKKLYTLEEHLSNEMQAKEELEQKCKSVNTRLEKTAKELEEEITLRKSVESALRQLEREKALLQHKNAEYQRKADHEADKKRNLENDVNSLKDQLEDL

ROCKII (1-543) [2] = molecular target: T1, ROCKII (1-543); test: IMAP Assay (Assay 2); assay type: biochemical; conditions: IMAP fluorescence polarization; 100 μM ATP, 1 nM kinase
Description: This assay is performed using FAM S6 substrate peptide (Catalogue #R7184) and IMAP FP Screening Express Kit detection reagents from Molecular Devices (Sunnyvale, Calif.) in IMAP kinase reaction buffer (Tris-HCl, pH 7.2, 10 mM MgCl2, 0.05% NaN3, 0.1% phosphate-free BSA) containing 1 mM DTT. Test compounds dissolved in neat DMSO at 0.3 mg/mL are serially diluted 1 to 3 for concentration response in 100% DMSO. The DMSO serial dilutions are further diluted 33.33-fold in kinase reaction buffer, and 10 μL of this buffer dilution is transferred to Corning black 96-well half area NBS plates for a final top concentration of 3 μg/mL in 1% DMSO. 10 μL aliquot of 3 nM ROCKII (1-543) diluted in kinase reaction buffer is added to each assay well for a final concentration of 1 nM kinase. 10 μL of a mixture of 600 nM FAM S6 peptide and 300 μM ATP diluted in kinase reaction buffer is added to each well for a final concentration of 200 nM peptide and 100 μM ATP. The kinase reaction mixture is incubated for 60 minutes at room temperature. Positive controls are reaction mixtures containing no test compound and negative controls (blanks) are reaction mixtures containing no kinase. The kinase reaction is stopped by addition of 60 μL IMAP progressive binding reagent (Catalog #R7284) diluted 400-fold in 1× Binding buffer A. After 30 min of incubation at room temperature, the plates are read for fluorescence polarization on Analyst Plate Reader using Ex 485 nm, Em 530 nm, and FL 505 dichroic minor. The mP signals are converted to percent of control (POC) values using the formula: POC=100*(Signal−BCTRL)÷(PCTRL−BCTRL)
Where Signal is the test well signal, BCTRL is the average of background (negative control) well signals on the plate and PCTRL is the average of positive control well signals on the plate. For the concentration-responsive compounds, POC as a function of test compound concentration is fitted to a 4-parameter logistic equation of the form: Y=A+(B−A)/[1+(x/C)D]
Where A, B, C, and D are fitted parameters (parameter B is fixed at zero POC), and x and y are the independent and dependent variables, respectively. The IC50 is determined as the inflection point parameter, C.
Target sequence in this assay (O75116 1-543, species assumed): as the sequence (O75116 1-543) above

[3] = tested on: IL-1 beta-induced coronary stenosis; conditions: long term treatment; cited from earlier work
rat stroke model = conditions: in vivo; cited from earlier work
[4] = tested on: spontaneously hypertensive rat, renal hypertensive rat and deoxycortisone acetate salt hypertensive rat models; conditions: cited from earlier work
[5] = tested on: neointimal formation in rats; conditions: cited from earlier work
Dahl salt-sensitive rats = conditions: rat, in vivo; cited from earlier work

CN(C)[C@H]1CCc2nc(NC(=O)c3cccc(CNC(=O)c4cn5cc(C#N)ccc5n4)c3)sc2C1 [compound 100]
IC50 (ROCKII (1-543) [1]): 1.7 nM
IC50 (ROCKII (1-543) [2]): 2.6 nM

CN1CCc2ccc(NC(=O)c3cccc(CNC(=O)c4cccc(-c5cnco5)c4)c3)cc2C1 [compound 190]
IC50 (ROCKII (1-543) [1]): 6.5 nM
IC50 (ROCKII (1-543) [2]): 56 nM

CN1CCc2nc(NC(=O)c3cccc(CNC(=O)c4cc5cc(C#N)ccc5n4C)c3)sc2C1 [compound 124]
IC50 (ROCKII (1-543) [1]): 3.8 nM
IC50 (ROCKII (1-543) [2]): 11 nM

N[C@@H]1CCc2nc(NC(=O)c3cccc(CNC(=O)c4cccc(-c5cn[nH]c5)c4)c3)sc2C1 [compound 28]
IC50 (ROCKII (1-543) [1]): 1.1 nM
IC50 (ROCKII (1-543) [2]): 0.45 nM

CN1CCc2ccc(NC(=O)c3cccc(CNC(=O)c4cccc(-c5cn[nH]c5)c4)c3)cc2C1 [compound 3]
IC50 (ROCKII (1-543) [1]): 4 nM
IC50 (ROCKII (1-543) [2]): 5.1 nM

CN1CCc2nc(NC(=O)c3cccc(CNC(=O)c4csc(-c5ccncc5)n4)c3)sc2C1 [compound 22]
IC50 (ROCKII (1-543) [1]): 5.8 nM
IC50 (ROCKII (1-543) [2]): 37 nM

CN1CCc2ccc(NC(=O)c3cccc(CNC(=O)c4ccc5cc(O)ccc5c4)c3)cc2C1 [compound 29]
IC50 (ROCKII (1-543) [1]): 2.6 nM
IC50 (ROCKII (1-543) [2]): 2 nM

Cc1nc(-c2ccncc2)sc1C(=O)NCc1cccc(C(=O)Nc2ccc3c(c2)CN(C)CC3)c1 [compound 95]
IC50 (ROCKII (1-543) [1]): 1.4 nM
IC50 (ROCKII (1-543) [2]): 1.25 nM

CN1CCc2ccc(NC(=O)c3cccc(CNC(=O)c4ccc(-n5ccnc5)cc4)c3)cc2C1 [compound 39]
IC50 (ROCKII (1-543) [1]): 4.9 nM
IC50 (ROCKII (1-543) [2]): 9.9 nM

Cc1c(C(=O)NCc2cccc(C(=O)Nc3nc4c(s3)C[C@@H](N3CCOCC3)CC4)c2)nnn1-c1nonc1N [compound 152]
IC50 (ROCKII (1-543) [1]): 1.9 nM
IC50 (ROCKII (1-543) [2]): 0.57 nM

CN1CCc2nc(NC(=O)c3cccc(CNC(=O)N4CCc5c(C#N)cccc54)c3)sc2C1 [compound 90]
IC50 (ROCKII (1-543) [1]): 3.1 nM
IC50 (ROCKII (1-543) [2]): 17 nM

CN1CCc2ccc(NC(=O)c3cccc(CNC(=O)c4cc5cc(C#N)ccc5n4C)c3)cc2C1 [compound 94]
IC50 (ROCKII (1-543) [1]): 8.1 nM
IC50 (ROCKII (1-543) [2]): 46 nM

CN1CCc2ccc(NC(=O)c3cccc(CNC(=O)c4ccc(-c5cnco5)s4)c3)cc2C1 [compound 64]
IC50 (ROCKII (1-543) [1]): 1.5 nM
IC50 (ROCKII (1-543) [2]): 1 nM

N[C@H]1CCc2nc(NC(=O)c3cccc(CNC(=O)c4cccc(-c5cn[nH]c5)c4)c3)sc2C1 [compound 30]
IC50 (ROCKII (1-543) [1]): 0.72 nM
IC50 (ROCKII (1-543) [2]): 0.16 nM

CN1CCc2ccc(NC(=O)c3cccc(CNC(=O)c4ccc(-c5cnco5)cc4)c3)cc2C1 [compound 49]
IC50 (ROCKII (1-543) [1]): 2.6 nM
IC50 (ROCKII (1-543) [2]): 26 nM

CN1CCc2ccc(NC(=O)c3cccc(CNC(=O)c4cc5ccc(C#N)cc5n4C)c3)cc2C1 [compound 92]
IC50 (ROCKII (1-543) [1]): 4.1 nM
IC50 (ROCKII (1-543) [2]): 17 nM

CN1CCc2nc(NC(=O)c3cccc(CNC(=O)c4cc(-c5ccncc5)n[nH]4)c3)sc2C1 [compound 74]
IC50 (ROCKII (1-543) [1]): 1.3 nM
IC50 (ROCKII (1-543) [2]): 0.23 nM

CN1CCc2ccc(NC(=O)c3cccc(CNC(=O)c4nnn(-c5nonc5N)c4-c4ccccc4)c3)cc2C1 [compound 123]
IC50 (ROCKII (1-543) [1]): 1.7 nM
IC50 (ROCKII (1-543) [2]): 3.9 nM

N[C@H]1CCc2nc(NC(=O)c3cccc(CNC(=O)c4ccc(-c5csnn5)cc4)c3)sc2C1 [compound 26]
IC50 (ROCKII (1-543) [1]): 7.6 nM
IC50 (ROCKII (1-543) [2]): 40 nM

CN1CCc2ccc(NC(=O)c3cccc(CNC(=O)c4cc5ccc(C(N)=O)cc5[nH]4)c3)cc2C1 [compound 54]
IC50 (ROCKII (1-543) [1]): 1.3 nM
IC50 (ROCKII (1-543) [2]): 0.45 nM

CN1CCc2ccc(NC(=O)c3cccc(CNC(=O)c4cc5cc(C#N)ccc5[nH]4)c3)cc2C1 [compound 80]
IC50 (ROCKII (1-543) [1]): 1.5 nM
IC50 (ROCKII (1-543) [2]): 0.58 nM

CN1CCc2nc(NC(=O)c3cccc(CNC(=O)c4csc(-c5cccnc5)n4)c3)sc2C1 [compound 14]
IC50 (ROCKII (1-543) [1]): 4.8 nM
IC50 (ROCKII (1-543) [2]): 7.9 nM

CN1CCc2ccc(NC(=O)c3cccc(CNC(=O)c4cc5cc(C(N)=O)ccc5[nH]4)c3)cc2C1 [compound 86]
IC50 (ROCKII (1-543) [1]): 1.7 nM
IC50 (ROCKII (1-543) [2]): 0.85 nM

Cc1cc(-c2ncc(C(=O)NCc3cccc(C(=O)Nc4nc5c(s4)CN(C)CC5)c3)s2)ccn1 [compound 154]
IC50 (ROCKII (1-543) [1]): 9.5 nM
IC50 (ROCKII (1-543) [2]): 39 nM

CN1CCc2ccc(NC(=O)c3cccc(CNC(=O)c4cnc(-c5cccnc5)s4)c3)cc2C1 [compound 194]
IC50 (ROCKII (1-543) [1]): 4.8 nM
IC50 (ROCKII (1-543) [2]): 30 nM

CN1CCc2nc(NC(=O)c3cccc(CNC(=O)c4cccc(-c5cccnc5)c4)c3)sc2C1 [compound 4]
IC50 (ROCKII (1-543) [1]): 22.5 nM
IC50 (ROCKII (1-543) [2]): 73 nM

CN1CCc2ccc(NC(=O)c3cccc(CNC(=O)c4cc5ccc(C#N)cc5[nH]4)c3)cc2C1 [compound 52]
IC50 (ROCKII (1-543) [1]): 2.2 nM
IC50 (ROCKII (1-543) [2]): 8.1 nM

CN1CCc2ccc(NC(=O)c3cccc(CNC(=O)c4cn5ccc(C(N)=O)cc5n4)c3)cc2C1 [compound 50, imidazo[1,2-a]pyridine-2,7-dicarboxylic acid 7-amide 2-[3-(2-methyl-1,2,3,4-tetrahydro-isoquinolin-7-ylcarbamoyl)-benzylamide]]
IC50 (ROCKII (1-543) [1]): 2.9 nM
IC50 (ROCKII (1-543) [2]): 11 nM

Cc1c(C(=O)NCc2cccc(C(=O)Nc3ccc4c(c3)CN(C)CC4)c2)nnn1-c1nonc1N [compound 125]
IC50 (ROCKII (1-543) [1]): 5.9 nM
IC50 (ROCKII (1-543) [2]): 26 nM

O=S(=O)(c1cccc2cnccc12)N1CCCNCC1 [fasudil]
coronary constrictive remodeling [3]: promote a regression of coronary constrictive remodeling
coronary stenosis [3]: progressively reduce coronary stenosis
infarct size and neurologic deficit (rat stroke model): reduce both the infarct size and neurologic deficit

CN1CCc2ccc(NC(=O)c3cccc(CNC(=O)c4cc(-c5ccncc5)[nH]n4)c3)cc2C1 [compound 119]
IC50 (ROCKII (1-543) [1]): 1.3 nM
IC50 (ROCKII (1-543) [2]): 0.22 nM

C[C@@H](N)[C@H]1CC[C@H](C(=O)Nc2ccncc2)CC1 [Y-27632]
effect on blood pressure ([4]; control rats): only a minor effect on blood pressure
effect on blood pressure ([4]; three rat models of hypertension): significantly decrease blood pressure
neointimal formation [5]: inhibited neointimal formation
ventricular hypertrophy and function (Dahl salt-sensitive rats): improve ventricular hypertrophy and function

— patent US8697911B2, “Rho kinase inhibitors” (Boehringer Ingelheim International GmbH, priority 2010, dated 2014)
